Assay results from patent US20180133203A1, “METHODS OF TREATING LIVER DISEASE” (Gilead Sciences, Inc., priority 2016, published 2018).

Tested on: TIMP-1
Experiment: Hepatic expression of TIMP-1 by qRT-PCR, CDHFD/NaNO2 rat model of NASH
Format: in vivo, male Wistar rats
Conditions: vs vehicle; rats; Formula (I) 0.2% in diet, Formula (III) 30 mg/kg/day, week 4 to 14
Procedure: The following study was conducted to evaluate the efficacy of the combination of an ASK1 inhibitor and an FXR agonist in a rodent model of non-alcoholic steatohepatitis (NASH), relative to the efficacy of the individual agents alone in the model. NASH was induced in male Wistar rats by administration of a choline-deficient high fat diet (CDHFD) combined with the chronic administration of sodium nitrite (CDHFD/NaNO2). The model capitalizes on the “two hit theory” of NASH by inducing both metabolic dysfunction (CDHFD) and oxidative stress (NaNO2) in the liver to result in hepatic fibrosis that is similar in character and severity to that seen in patients with advanced NASH. […] The following endpoints were assessed at the completion of the 14 week study: i) liver fibrosis measured by liver hydroxyproline (OHP) content and by quantitative morphometric analysis of collagen content by Picosirius red (PSR) staining; ii) myofibroblast activation in liver sections as measured by quantitative IHC of the myofibroblast marker desmin; and, iii) Col1a1 and Timp1 in liver tissue measured by RT-PCR. […] All endpoints were assessed at the completion of the 14 week study protocol. […] Quantitative PCR was performed and analyzed using Absolute QPCR Rox Mix (Life Technologies, Cat No # AB-1132) and a 384-format ABI 7900HT Sequence Detection System (Applied Biosystems). […]

Structure (SMILES) | reduction of hepatic TIMP-1 expression induced by CDHFD/NaNO2
O=C(Nc1cccc(-c2nncn2C2CC2)c1)c1cc(-n2cnc(C3CC3)c2)ccn1 [Formula (I)] | 28%
O=C(O)c1ccnc(N2CC(O)(c3ccc(OCc4c(-c5c(Cl)cccc5Cl)noc4C4CC4)cc3Cl)C2)c1 [Formula (III)] | did not significantly reduce
